Consider one molecule from patent publication US11478496B2, “Treatments of prostate cancer” (THE FLORIDA INTERNATIONAL UNIVERSITY BOARD OF TRUSTEES, priority 2020, dated 2022).

SMILES strings stand for the structures.

In data set [1] the target is LIG I (Homo sapiens, UniProt P18858). The data set can be described thus: LIG I activity on nicked substrate. In kind it is biochemical. As to conditions: 5 nM LIG I. How it is done:
Lane 1 represents the substrate only. Lanes 2 and 3 indicates the reaction mixture with 5 nM LIG I in the absence and presence of DMSO. […] The substrate was ^32P-labeled at the 5′-end of the upstream strand and is illustrated above the gel. The experiments were repeated at least three times. Representative gel is illustrated. Quantification of the results is shown below the gel. Two-way ANOVA with Tukey's multiple comparison posttests was used to determine statistically significant differences. * signifies p<0.05 compared to the control reaction with LIG I and DMSO. […] Lane 1 represents the substrate only. Lanes 2 and 3 indicates the reaction mixture with 5 nM pol β in the absence and presence of DMSO. […] The substrate was ^32P-labeled at the 5′-end of the upstream strand and is illustrated above the gel. The experiments were repeated at least three times. Quantification of the results are shown below the gel. Two-way ANOVA with Tukey's multiple comparison posttests was used to determine statistical significance. * signifies p<0.05 compared to the control reaction with pol β and DMSO.
BER reactions were terminated by adding 2× stopping buffer containing 95% formamide and 10 mM EDTA. Reaction mixtures were then denatured at 95° C. for 5 min and separated by 15% urea-denaturing polyacrylamide gel electrophoresis. Substrates and products were detected and analyzed using a Pharos FX Plus PhosphorImager (Bio-Rad, Hercules, Calif.).

The target in data set [2] is FEN1 (Homo sapiens, UniProt P39748). The data set can be described thus: FEN1 activity. It is filed as biochemical.
Method: 10 μM hit compounds were incubated with 10 nM pol β, 10 nM FEN1 and 20 nM LIG I in BER reaction buffer containing 50 mM Tris-HCl (pH 7.5), 50 mM KCl, 0.1 mM EDTA, 0.1 mg/ml bovine serum albumin, and 0.01% Nonidet P-40 in the presence of 5 mM Mg^2+ and 2 mM ATP. The compounds were initially preincubated with a BER enzyme at varying concentrations for 1 h with rotation. This was followed by the addition of 25 nM ^32P-labeled substrate containing an abasic site, which was precut with 25 or 50 nM APEI. The reaction mixture (20 μL) was incubated at 37° C. for 30 min, and the reaction was terminated by 50 mM EDTA. Substrates, products, and unrepaired BER intermediates were separated by 15% urea-denaturing sequencing gel and detected by a Pharos FX Plus PhosphorImager (Bio-Rad, Hercules, Calif.).
Data set [3] deals with LNCaP cells. Kind of data set: RTCA impedance proliferation assay, LNCaP. It is filed as cell-based. To be noted: 10 μM; for LNCaP cell proliferation, concentration dependence: 1 μM and 0.1 μM. How it is done: (5A-5B) LNCaP cells were plated onto xCelligence E-plates at 10^4 cells per well in medium supplemented with either 10% FBS (5A) or 10% CSS (5B) serum. […] (5C-5D) LAPC4 cells were plated at 5×10^4 cells per well onto xCelligence E-plates in media supplemented with FBS (5C) or CSS (5D) and allowed to attach overnight. Treatment was conducted as in (5A-5B) and impedance measured continuously in 30 min intervals. […] Background impedance was established after incubating E-plates (Acea Biosciences, San Diego, Calif.) with 50 μL media at room temperature for 30 min and placed in RTCA. Cells were then seeded in 100 μL per well. Cells attached overnight and then treated. During attachment stage and after treatment impedance was measured every 30 min. Impedance is represented by cell index and is calculated as follows: CI=(Zi−Zo)/15Ω where Zi is impedance at an individual time point, and Zo is the background impedance. Average CI was calculated from four wells per treatment at each time point and normalized to the impedance immediately after compound addition.

The subject of data set [4] is LAPC4 cells. The data set can be described thus: RTCA impedance proliferation assay, LAPC4. It is filed as cell-based, human. As to conditions: 10 μM; medium with both FBS and CSS. The method, then: (5A-5B) LNCaP cells were plated onto xCelligence E-plates at 10^4 cells per well in medium supplemented with either 10% FBS (5A) or 10% CSS (5B) serum. Cells attached overnight and were treated with vehicle (DMSO) or 10 μM of the indicated compounds. (5C-5D) LAPC4 cells were plated at 5×10^4 cells per well onto xCelligence E-plates in media supplemented with FBS (5C) or CSS (5D) and allowed to attach overnight. Treatment was conducted as in (5A-5B) and impedance measured continuously in 30 min intervals. […] Proliferation assays were done using Roche DP Real Time Cell Analyzer (RTCA), as described by the manufacturer. Background impedance was established after incubating E-plates (Acea Biosciences, San Diego, Calif.) with 50 μL media at room temperature for 30 min and placed in RTCA. Cells were then seeded in 100 μL per well. Cells attached overnight and then treated. During attachment stage and after treatment impedance was measured every 30 min. Impedance is represented by cell index and is calculated as follows: CI=(Zi−Zo)/15Ω where Zi is impedance at an individual time point, and Zo is the background impedance. Average CI was calculated from four wells per treatment at each time point and normalized to the impedance immediately after compound addition.

Data set [5] concerns LAPC4 xenograft. The source says: Human prostate cancer cell line LAPC4 is used to implant into immunocompromised NOD scid male mice. Once tumor sizes reach 0.5 cm^3, the mice are separated into two groups. […] At the end of the 4-week treatment, mice are euthanized. Their tumors are excised and weighed. Tumors, samples of adjacent nonmalignant tissues, and prostates are collected for comparative analysis.
A portion of the tumor is used for RNA-Seq (RNA sequencing) analysis to reveal the presence and quantity of the entire set of RNA present in these cells.
These measurements are performed using a fluorescence-based in situ DNA damage and repair assay.

Data set [6] concerns RWPE1 cells. Kind of data set: RTCA impedance proliferation assay, RWPE1. As to conditions: 10 μM; serum free medium. It is filed as cell-based. How it is done:
(6A-6B) PNT1A cells were plated onto xCelligence E-plates at 5×10^4 cells per well in media supplemented with 10% FBS (6A) or CSS (6B). Cells were allowed to attach overnight and treated with vehicle (DMSO) or 10 μM of indicated compounds. Cellular impedance was monitored continuously with 30 min intervals. (6C) RWPE1 cells were plated at 5×10^4 cells per well in serum free medium supplemented with Epidermal Growth Factor (EGF) and Bovine Pituitary Extract ([…]) onto E-plates and treated with 10 μM of indicated compounds as indicated. […] Proliferation assays were done using Roche DP Real Time Cell Analyzer (RTCA), as described by the manufacturer. Background impedance was established after incubating E-plates (Acea Biosciences, San Diego, Calif.) with 50 μL media at room temperature for 30 min and placed in RTCA. Cells were then seeded in 100 μL per well. Cells attached overnight and then treated. During attachment stage and after treatment impedance was measured every 30 min. Impedance is represented by cell index and is calculated as follows: CI=(Zi−Zo)/15Ω where Zi is impedance at an individual time point, and Zo is the background impedance. Average CI was calculated from four wells per treatment at each time point and normalized to the impedance immediately after compound addition.

Chain of LIG I (P18858 whole entry): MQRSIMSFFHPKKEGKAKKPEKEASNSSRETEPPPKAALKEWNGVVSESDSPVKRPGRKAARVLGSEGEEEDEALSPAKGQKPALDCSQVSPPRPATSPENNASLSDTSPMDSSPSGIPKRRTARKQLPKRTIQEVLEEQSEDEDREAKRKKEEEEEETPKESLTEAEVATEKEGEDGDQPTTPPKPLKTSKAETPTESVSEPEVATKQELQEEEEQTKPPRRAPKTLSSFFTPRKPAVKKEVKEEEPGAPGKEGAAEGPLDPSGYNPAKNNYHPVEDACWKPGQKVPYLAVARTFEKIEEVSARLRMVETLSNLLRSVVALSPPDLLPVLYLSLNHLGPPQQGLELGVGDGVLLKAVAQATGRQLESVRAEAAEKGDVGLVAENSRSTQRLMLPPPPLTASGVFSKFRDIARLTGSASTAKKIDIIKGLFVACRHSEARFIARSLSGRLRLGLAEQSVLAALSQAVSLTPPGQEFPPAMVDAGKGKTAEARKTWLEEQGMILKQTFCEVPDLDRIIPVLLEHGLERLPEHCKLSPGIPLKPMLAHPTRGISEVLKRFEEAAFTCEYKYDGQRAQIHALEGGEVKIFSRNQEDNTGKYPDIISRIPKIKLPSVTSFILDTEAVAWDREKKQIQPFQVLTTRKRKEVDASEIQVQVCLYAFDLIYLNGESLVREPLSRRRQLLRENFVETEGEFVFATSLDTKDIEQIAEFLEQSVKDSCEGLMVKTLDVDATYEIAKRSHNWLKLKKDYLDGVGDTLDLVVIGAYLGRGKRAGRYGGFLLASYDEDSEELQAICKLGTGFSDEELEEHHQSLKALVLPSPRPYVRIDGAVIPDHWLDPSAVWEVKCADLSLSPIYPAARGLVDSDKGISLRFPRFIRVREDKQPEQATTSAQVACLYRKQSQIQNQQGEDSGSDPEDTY
Chain of FEN1 (P39748 whole entry): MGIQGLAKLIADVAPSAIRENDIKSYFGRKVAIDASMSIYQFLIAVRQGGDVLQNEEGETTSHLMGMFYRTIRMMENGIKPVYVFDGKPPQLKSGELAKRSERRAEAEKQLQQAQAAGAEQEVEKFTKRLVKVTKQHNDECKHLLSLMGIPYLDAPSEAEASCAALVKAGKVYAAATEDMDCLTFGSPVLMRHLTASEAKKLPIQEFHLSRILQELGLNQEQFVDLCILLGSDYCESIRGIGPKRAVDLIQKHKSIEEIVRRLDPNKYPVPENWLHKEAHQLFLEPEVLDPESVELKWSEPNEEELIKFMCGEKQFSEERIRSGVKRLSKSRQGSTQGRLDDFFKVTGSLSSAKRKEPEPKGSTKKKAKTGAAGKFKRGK

Turning to `C[C@@H]1C/C=C/C=C/C=C/C=C/[C@H](O[C@@H]2O[C@H](C)[C@@H](O)[C@H](N)[C@@H]2O)C[C@@H]2O[C@](O)(C[C@@H](O)C[C@H]3O[C@@H]3/C=C/C(=O)O1)C[C@H](O)[C@H]2C(=O)O` [natamycin], the “reduction of the activity of LIG I” value in data set [1] (0.5 μM natamycin) and in data set [1] (at 1 (unit not given) natamycin) was 3.5 fold throughout. Also, the “decrease of the activity of LIG I” value in data set [1] (5 μM natamycin) worked out at 14 fold. For the same molecule, the “inhibitory effect on FEN1” value in data set [2] is recorded as “No inhibitory effect”. For the same molecule, the “LNCaP cell proliferation, concentration dependence” value in data set [3] (FBS medium) is “significantly inhibited by all concentrations”; in data set [3] (medium with CSS), 10 μM and 1 μM were inhibitory. Further, the LNCaP cellular proliferation entry in data set [3] (FBS) was “slowest proliferation rate”. The LNCaP cellular impedance result in data set [3] (androgen depleted medium (CSS)) is “abolished cellular impedance”. In addition, in data set [4], the “LAPC4 cellular proliferation and attachment” value is given as “abolished”. The “toxicity for prostate cancer cells in a mouse model” value in data set [5] (LAPC4 xenograft, intravenously, 4 weeks) is on record as “specific toxicity for prostate cancer cells”. The “tolerability by noncancerous tissues in a mouse model” value in data set [5] (mouse, in vivo, iv) is given as “well-tolerated”. Moreover, the RWPE1 proliferation result in data set [6] is listed as “slightly inhibited”.
